In ChEMBL document CHEMBL1149714 (2007) one finds MIC and ED50 data, which are given here for 4 compounds.

Values after ≈ are worked out from the molar mass of the structure shown. Where only a bound is given, the exact number is not on record here.

Common to all, as to type: functional
In test [1] the test system is Escherichia coli. Description: Antibacterial activity against Escherichia coli NIHJJC2 after 20 hrs by agar dilution method. For orientation: In agar dilution the substance is mixed into plates at graded concentrations.
Test [2] concerns Streptococcus pneumoniae. Description: Antibacterial activity against penicillin resistant Streptococcus pneumoniae SR-16675 after 20 hrs by agar dilution method.
Test [3] concerns Pseudomonas aeruginosa. In words: Antibacterial activity against CAZ susceptible Pseudomonas aeruginosa SR24 infected in mouse after 7 days. Conditions: 168 h.
The test system of test [4] is Enterobacter cloacae. Description: Antibacterial activity against AmpC producing Enterobacter cloacae SR-4321 after 20 hrs by agar dilution method.
In test [5] the test system is Pseudomonas aeruginosa. Description: Antibacterial activity against Pseudomonas aeruginosa SR24 after 20 hrs by agar dilution method.
Test [6] concerns Pseudomonas aeruginosa. Description: Antibacterial activity against Imipenem resistant Pseudomonas aeruginosa SR-6554 after 20 hrs by agar dilution method.
Test [7] relates to Staphylococcus aureus. In words: Antibacterial activity against […] Staphylococcus aureus SMITH after 20 hrs by agar dilution method.
Test [8] deals with Moraxella catarrhalis. Description: Antibacterial activity against Moraxella catarrhalis ATCC 43617 after 20 hrs by agar dilution method. The note with it: ATCC 43617, 20 h.
Test [9] has as its system Haemophilus influenzae. Description: Antibacterial activity against Haemophilus influenzae ATCC 49766 after 20 hrs by agar dilution method. The note with it: ATCC 49766, 20 h.
Test [10] has as its system Pseudomonas aeruginosa. Description: Antibacterial activity against Pseudomonas aeruginosa SR-5393 after 20 hrs by agar dilution method.
Test [11] has as its system Pseudomonas aeruginosa. In words: Antibacterial activity against AmpC hyperproducing Pseudomonas aeruginosa SR24-12 after 20 hrs by agar dilution method.
The test system of test [12] is Haemophilus influenzae. In words: Antibacterial activity against beta-lactamase negative ampicillin resistant Haemophilus influenzae SR-11435 after 20 hrs by agar dilution method.
Test [13] deals with Pseudomonas aeruginosa. Description: Antibacterial activity against CAZ resistant Pseudomonas aeruginosa SR24-12 infected in mouse after 7 days. The note with it: 168 h.
The subject of test [14] is Enterobacter cloacae. Description: Antibacterial activity against Enterobacter cloacae ATCC 13047 after 20 hrs by agar dilution method. Conditions: ATCC 13047, 20 h.
The test system of test [15] is Escherichia coli. Description: Antibacterial activity against Toho 2 (ESBL) producing Escherichia coli SR-21003 after 20 hrs by agar dilution method.

In the case of `CNCCCn1ccc2c1ccc[n+]2CC1=C(C(=O)[O-])N2C(=O)[C@@H](NC(=O)/C(=N\O[C@@H](C)C(=O)O)c3nc(N)sc3Cl)[C@H]2SC1`, the MIC in test [1] was 0.25 mg/L (≈ 0.369 µM); in [2], 2 mg/L (≈ 2.95 µM); in [4], 2 mg/L (≈ 2.95 µM); in test [5], 1 mg/L (≈ 1.48 µM); in test [6], 8 mg/L (≈ 11.8 µM); in test [7] it was 1 mg/L (≈ 1.48 µM). Besides, the MIC was 0.016 mg/L (≈ 0.0236 µM) in test [8]; 0.032 mg/L (≈ 0.0473 µM) in test [9]; 2 mg/L (≈ 2.95 µM) in test [10]; 4 mg/L (≈ 5.91 µM) in [11]; 0.063 mg/L (≈ 0.093 µM) in [12]; 0.5 mg/L (≈ 0.738 µM) in test [14]. The compound further registered an MIC in test [15] of 4 mg/L (≈ 5.91 µM). The ED50 (in general, the midpoint of the dose-response relation) in test [3] was 1.4 mg/kg; in test [13], 5.32 mg/kg.

On to `CNCCCn1ccc2c1ccc[n+]2CC1=C(C(=O)[O-])N2C(=O)[C@@H](NC(=O)/C(=N\O[C@@H](C)C(=O)O)c3nc(N)sc3Br)[C@H]2SC1`, for which the MIC in [1] is 0.5 mg/L (≈ 0.693 µM); in [2], 4 mg/L (≈ 5.54 µM); in [4], 4 mg/L (≈ 5.54 µM); in test [5], 1 mg/L (≈ 1.39 µM); in test [6], 8 mg/L (≈ 11.1 µM); in test [7] it was 1 mg/L (≈ 1.39 µM). Besides, the MIC in [8] came out at 0.016 mg/L (≈ 0.0222 µM); in [9], 0.063 mg/L (≈ 0.0873 µM); in test [10], 4 mg/L (≈ 5.54 µM); in test [11] it was 4 mg/L (≈ 5.54 µM); in test [12], 0.125 mg/L (≈ 0.173 µM); in test [14], 1 mg/L (≈ 1.39 µM). In addition, the MIC in test [15] came out at 4 mg/L (≈ 5.54 µM).

Regarding `CC(C)(O/N=C(\C(=O)N[C@@H]1C(=O)N2C(C(=O)[O-])=C(C[n+]3ccccc3)CS[C@H]12)c1csc(N)n1)C(=O)O` [CEFTAZIDIME], the MIC in test [1] was 0.25 mg/L (≈ 0.457 µM); in test [2], 8 mg/L (≈ 14.6 µM); in test [4] it was 64 mg/L (≈ 117 µM); in [5] it was 0.5 mg/L (≈ 0.915 µM); in test [6], 32 mg/L (≈ 58.5 µM); in test [7], 8 mg/L (≈ 14.6 µM). For the same compound, the MIC in test [8] amounted to 0.063 mg/L (≈ 0.115 µM); in [9], 0.063 mg/L (≈ 0.115 µM); in test [10], 2 mg/L (≈ 3.66 µM); in [11], 64 mg/L (≈ 117 µM); in [12], 0.125 mg/L (≈ 0.229 µM); in [14] it was 8 mg/L (≈ 14.6 µM). For the same compound, in test [15], the MIC turned out to be 1 mg/L (≈ 1.83 µM). For the same compound, the figures for the ED50 in test [3] and in [13] were 2.83 mg/kg and 127 mg/kg, respectively.

With `CNCCCn1ccc2c1ccc[n+]2CC1=C(C(=O)[O-])N2C(=O)[C@@H](NC(=O)/C(=N\O[C@@H](C)C(=O)O)c3nc(N)sc3F)[C@H]2SC1`, the MIC is 0.031 mg/L (≈ 0.0469 µM) in test [1]; 16 mg/L (≈ 24.2 µM) in test [2]; greater than 128 mg/L in test [4]; 1 mg/L (≈ 1.51 µM) in test [5]; 128 mg/L (≈ 194 µM) in test [6]; 2 mg/L (≈ 3.03 µM) in test [7]. The MIC in test [8] was 0.5 mg/L (≈ 0.757 µM); in test [9] it was 0.063 mg/L (≈ 0.0954 µM); in test [10], 8 mg/L (≈ 12.1 µM); in [11], greater than 128 mg/L; in [12], 0.25 mg/L (≈ 0.378 µM); in [14] it was 1 mg/L (≈ 1.51 µM). Also, in test [15], the MIC came to 16 mg/L (≈ 24.2 µM).
